# Experimental data: US6737383B1, “Herbicidal oxadiazolidines” (priority 1999, dated 2004)
# How the values were obtained:
# bamyardgrass = assay: Test B flood test barnyardgrass; assay type: in vivo, Echinochloa crus-galli
# How it was run: (§1)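 Plants were grown to the 2-leaf stage before treatment with test chemical, then held in a greenhouse for twelve to sixteen days. Injury was visually rated against untreated controls on a 0–10 scale, where 0 is no effect and 10 is complete control.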
# blackgrass = assay: Test B pre/postemergence blackgrass; assay type: in vivo, Alopecurus myosuroides
# How it was run: (§2)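 Test chemicals in a non-phytotoxic solvent mixture with surfactant were sprayed preemergence onto planted seeds and postemergence onto plants 2 to 18 cm tall (1- to 4-leaf stage). After twelve to sixteen days in a greenhouse, injury was visually rated against untreated controls from 0 (no effect) to 10 (complete control).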
# sugar beet = assay: Test B pre/postemergence sugar beet; assay type: in vivo, Beta vulgaris
# How it was run: as §2
# purple nutsedge = assay: Test B pre/postemergence purple nutsedge; assay type: in vivo, Cyperus rotundus
# How it was run: as §2
# wild oat = assay: Test B pre/postemergence wild oat; assay type: in vivo, Avena fatua
# How it was run: as §2
# velvetleaf = assay: Test B pre/postemergence velvetleaf; assay type: in vivo, Abutilon theophrasti
# How it was run: as §2
# crabgrass = assay: Test B pre/postemergence crabgrass; assay type: in vivo, Digitaria sanguinalis
# How it was run: as §2
# giant foxtail = assay: Test B pre/postemergence giant foxtail; assay type: in vivo, Setaria faberii
# How it was run: as §2
# duck salad = assay: Test B flood test duck salad; assay type: in vivo, Heteranthera limosa
# How it was run: as §1
# wheat = assay: Test B pre/postemergence wheat; assay type: in vivo, Triticum aestivum
# How it was run: as §2
# bedstraw = assay: Test B pre/postemergence bedstraw; assay type: in vivo, Galium aparine
# How it was run: as §2
# cocklebur = assay: Test B pre/postemergence cocklebur; assay type: in vivo, Xanthium strumarium
# How it was run: as §2
# pigweed = assay: Test B pre/postemergence pigweed; assay type: in vivo, Amaranthus retroflexus
# How it was run: as §2
# morningglory = assay: Test B pre/postemergence morningglory; assay type: in vivo, Ipomoea hederacea
# How it was run: as §2
# surinam grass = assay: Test B pre/postemergence surinam grass; assay type: in vivo, Brachiaria decumbens
# How it was run: as §2
# rice = assay: Test B flood test rice; assay type: in vivo, Oryza sativa
# How it was run: as §1
# [1] = Postemergence, Rate 62 g/ha, scale 0 to 10, 0 is no effect, 10 is complete control
# [2] = Rate 125 g/ha, Postemergence section (flood test species), scale 0 to 10, 0 no effect, 10 complete control
# [3] = Rate 500 g/ha, listed under Postemergence (flood test species), scale 0 to 10, 0 no effect, 10 complete control
# [4] = flood test, listed under Postemergence, Rate 250 g/ha, scale 0 to 10, 0 no effect, 10 complete control
# [5] = Postemergence, Rate 250 g/ha, scale 0 to 10, 0 no effect, 10 complete control
# [6] = Preemergence, Rate 62 g/ha, scale 0 to 10 (0 no effect, 10 complete control)
# [7] = Preemergence, Rate 125 g/ha, scale 0 to 10 (0 no effect, 10 complete control)
# [8] = Preemergence, Rate 250 g/ha, scale of 0 to 10 where 0 is no effect and 10 is complete control
# [9] = Preemergence, Rate 500 g/ha, scale 0 (no effect) to 10 (complete control)
# [10] = Rate 125 g/ha, Postemergence, scale 0 to 10, 0 no effect, 10 complete control
# [11] = Rate 500 g/ha, Postemergence, scale 0 to 10, 0 no effect, 10 complete control
smiles,measurement,setting,value
COc1cccc(C)c1-n1c(=O)on(C(=O)N(c2ccc(F)cc2)C(C)C)c1=O [Compound 62],Barnyardgrass plant response rating,bamyardgrass; [1],0
same,Barnyardgrass plant response rating,bamyardgrass; [2],0
same,Barnyardgrass plant response rating,bamyardgrass; [3],0
same,Barnyardgrass plant response rating,bamyardgrass; [4],0
same,Blackgrass plant response rating,blackgrass; [1],0
same,Blackgrass plant response rating,blackgrass; [5],0
same,Blackgrass plant response rating,blackgrass; [6],0
same,"Plant response rating, Blackgrass",blackgrass; [7],0
same,"Plant response rating, Blackgrass",blackgrass; [8],2
same,Blackgrass plant response rating,blackgrass; [9],4
same,Blackgrass plant response rating,blackgrass; [10],0
same,Blackgrass plant response rating,blackgrass; [11],2
same,Sugarbeets plant response rating,sugar beet; [1],0
same,Sugarbeets plant response rating,sugar beet; [5],0
same,Sugarbeets plant response rating,sugar beet; [6],0
same,"Plant response rating, Sugarbeets",sugar beet; [7],0
same,"Plant response rating, Sugarbeets",sugar beet; [8],0
same,Sugarbeets plant response rating,sugar beet; [9],0
same,Sugarbeets plant response rating,sugar beet; [10],0
same,Sugarbeets plant response rating,sugar beet; [11],5
same,Nutsedge plant response rating,purple nutsedge; [1],0
same,Nutsedge plant response rating,purple nutsedge; [5],0
same,Nutsedge plant response rating,purple nutsedge; [6],0
same,"Plant response rating, Nutsedge",purple nutsedge; [7],0
same,"Plant response rating, Nutsedge",purple nutsedge; [8],0
same,Nutsedge plant response rating,purple nutsedge; [9],0
same,Nutsedge plant response rating,purple nutsedge; [10],0
same,Nutsedge plant response rating,purple nutsedge; [11],3
same,Wild oats plant response rating,wild oat; [1],0
same,Wild oats plant response rating,wild oat; [5],3
same,Wild oats plant response rating,wild oat; [6],0
same,"Plant response rating, Wild oats",wild oat; [7],0
same,"Plant response rating, Wild oats",wild oat; [8],0
same,Wild oats plant response rating,wild oat; [9],0
same,Wild oats plant response rating,wild oat; [10],0
same,Wild oats plant response rating,wild oat; [11],3
same,Velvetleaf plant response rating,velvetleaf; [1],0
same,Velvetleaf plant response rating,velvetleaf; [5],2
same,Velvetleaf plant response rating,velvetleaf; [6],0
same,"Plant response rating, Velvetleaf",velvetleaf; [7],0
same,"Plant response rating, Velvetleaf",velvetleaf; [8],0
same,Velvetleaf plant response rating,velvetleaf; [9],0
same,Velvetleaf plant response rating,velvetleaf; [10],0
same,Velvetleaf plant response rating,velvetleaf; [11],7
same,Crabgrass plant response rating,crabgrass; [1],0
same,Crabgrass plant response rating,crabgrass; [5],0
same,Crabgrass plant response rating,crabgrass; [6],2
same,"Plant response rating, Crabgrass",crabgrass; [7],3
same,"Plant response rating, Crabgrass",crabgrass; [8],6
same,Crabgrass plant response rating,crabgrass; [9],9
same,Crabgrass plant response rating,crabgrass; [10],0
same,Crabgrass plant response rating,crabgrass; [11],7
same,Giant foxtail plant response rating,giant foxtail; [1],0
same,Giant foxtail plant response rating,giant foxtail; [5],0
same,Giant foxtail plant response rating,giant foxtail; [6],5
same,"Plant response rating, Giant foxtail",giant foxtail; [7],5
same,"Plant response rating, Giant foxtail",giant foxtail; [8],9
same,Giant foxtail plant response rating,giant foxtail; [9],10
same,Giant foxtail plant response rating,giant foxtail; [10],0
same,Giant foxtail plant response rating,giant foxtail; [11],2
same,Ducksalad plant response rating,duck salad; [1],0
same,Ducksalad plant response rating,duck salad; [2],0
same,Ducksalad plant response rating,duck salad; [3],0
same,Ducksalad plant response rating,duck salad; [4],0
same,Wheat plant response rating,wheat; [1],0
same,Wheat plant response rating,wheat; [5],0
same,Wheat plant response rating,wheat; [6],0
same,"Plant response rating, Wheat",wheat; [7],0
same,"Plant response rating, Wheat",wheat; [8],0
same,Wheat plant response rating,wheat; [9],0
same,Wheat plant response rating,wheat; [10],0
same,Wheat plant response rating,wheat; [11],0
same,Bedstraw plant response rating,bedstraw; [1],0
same,Bedstraw plant response rating,bedstraw; [5],2
same,Bedstraw plant response rating,bedstraw; [6],0
same,"Plant response rating, Bedstraw",bedstraw; [7],0
same,"Plant response rating, Bedstraw",bedstraw; [8],0
same,Bedstraw plant response rating,bedstraw; [9],4
same,Bedstraw plant response rating,bedstraw; [10],0
same,Cocklebur plant response rating,cocklebur; [1],0
same,Cocklebur plant response rating,cocklebur; [5],6
same,Cocklebur plant response rating,cocklebur; [6],0
same,"Plant response rating, Cocklebur",cocklebur; [8],0
same,Cocklebur plant response rating,cocklebur; [9],5
same,Cocklebur plant response rating,cocklebur; [10],4
same,Cocklebur plant response rating,cocklebur; [11],6
same,Redroot pigweed plant response rating,pigweed; [1],0
same,Redroot pigweed plant response rating,pigweed; [5],0
same,Redroot pigweed plant response rating,pigweed; [6],0
same,"Plant response rating, Redroot pigweed",pigweed; [7],0
same,"Plant response rating, Redroot pigweed",pigweed; [8],0
same,Redroot pigweed plant response rating,pigweed; [9],0
same,Redroot pigweed plant response rating,pigweed; [10],0
same,Redroot pigweed plant response rating,pigweed; [11],0
same,Morningglory plant response rating,morningglory; [1],2
same,Morningglory plant response rating,morningglory; [5],2
same,Morningglory plant response rating,morningglory; [6],0
same,"Plant response rating, Morningglory",morningglory; [7],0
same,"Plant response rating, Morningglory",morningglory; [8],0
same,Morningglory plant response rating,morningglory; [9],3
same,Morningglory plant response rating,morningglory; [10],2
same,Morningglory plant response rating,morningglory; [11],6
same,B. signalgrass plant response rating,surinam grass; [1],0
same,B. signalgrass plant response rating,surinam grass; [5],2
same,B. signalgrass plant response rating,surinam grass; [6],0
same,"Plant response rating, B. signalgrass",surinam grass; [7],0
same,"Plant response rating, B. signalgrass",surinam grass; [8],0
same,B. signalgrass plant response rating,surinam grass; [9],0
same,B. signalgrass plant response rating,surinam grass; [10],0
same,B. signalgrass plant response rating,"surinam grass; Rate 500 g/ha, Postemergence, scale of 0 to 10 where 0 is no effect and 10 is complete control",4
same,Rice plant response rating,rice; [1],0
same,Rice plant response rating,rice; [2],0
same,Rice plant response rating,rice; [3],0
same,Rice plant response rating,rice; [4],0
